Results reported in ChEMBL document CHEMBL1143952, “Synthesis and characterization of carnitine nitro-derivatives” (Bioorg Med Chem, 2008).

Assays:
[1] = Metabolic stability in phosphate buffer saline assessed as biotransformation after 24 hrs relative to unaltered compound; assay type: ADME; conditions: phosphate buffered saline; read-out: Activity
[2] = Metabolic stability in human saliva assessed as biotransformation after 24 hrs relative to unaltered compound; assay type: ADME; conditions: read-out: Activity
[3] = Metabolic stability in human RBC assessed as biotransformation after 24 hrs relative to unaltered compound; assay type: ADME, cell-based, Erythrocyte; conditions: red blood cells (RBC), read-out: Activity
[4] = Metabolic stability in human RBC assessed as nitrite or nitrate production after 24 hrs; assay type: ADME, cell-based; conditions: erythrocyte
[5] = biological target: T1, Organic cation/carnitine transporter 2 (Rattus norvegicus, UniProt O70594); assay: Inhibition of rat kidney brush border membrane OCTN2 transporter assessed as [3H]carnitine uptake after 10 mins
T1 sequence (O70594 whole entry): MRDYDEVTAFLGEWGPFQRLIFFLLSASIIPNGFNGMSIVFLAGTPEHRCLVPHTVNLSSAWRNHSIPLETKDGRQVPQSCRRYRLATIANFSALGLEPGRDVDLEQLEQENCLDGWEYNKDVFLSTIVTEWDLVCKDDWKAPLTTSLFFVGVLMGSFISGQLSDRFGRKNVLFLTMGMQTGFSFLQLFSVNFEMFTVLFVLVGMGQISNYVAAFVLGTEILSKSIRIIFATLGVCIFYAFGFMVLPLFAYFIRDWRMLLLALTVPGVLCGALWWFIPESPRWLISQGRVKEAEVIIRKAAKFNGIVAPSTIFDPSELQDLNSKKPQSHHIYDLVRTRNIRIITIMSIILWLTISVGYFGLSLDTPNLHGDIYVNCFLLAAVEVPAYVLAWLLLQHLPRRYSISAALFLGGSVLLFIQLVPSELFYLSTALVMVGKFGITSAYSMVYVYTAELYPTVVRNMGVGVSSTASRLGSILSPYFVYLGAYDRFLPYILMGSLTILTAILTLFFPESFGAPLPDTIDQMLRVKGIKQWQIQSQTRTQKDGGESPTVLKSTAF

[6] = biological target: T2, OCTN2 (organic cation/carnitine transporter 2) (Rattus norvegicus, UniProt O70594); assay: Inhibition of rat kidney brush border membrane OCTN2 transporter assessed as [3H]carnitine uptake after 30 mins relative to control; set-up: scale not given: the % may be the effect or the level left; conditions: probe [3H]carnitine, read-out: Activity
T2 sequence (O70594 whole entry): T1 sequence (O70594 whole entry)

[7] = Metabolic stability in human plasma assessed as biotransformation after 24 hrs relative to unaltered compound

Row | Compound | degraded at 24 h [1] | metabolised at 24 h [2] | metabolised at 24 h [3] | Activity [4] | IC50 [5] | activity at 0.5 h [6] | metabolised at 24 h [7]
1 | C[N+](C)(C)C[C@H](CC(=O)O)OC(=O)CCCCCO[N+](=O)[O-].[Cl-] | 100% | 100% | 100% | 23 nmol/mL | 76 µM | 20% | 45%
2 | CCOC(=O)C[C@@H](C[N+](C)(C)C)OC(=O)CCCCCO[N+](=O)[O-].[Cl-] | 100% | 100% | 100% | 22 nmol/mL |  | 1.5% | 100%
3 | CCOC(=O)C[C@@H](C[N+](C)(C)C)OC(=O)CCCCCCCCCCCCCCCO[N+](=O)[O-].[Cl-] | 100% | 75% | 73% | 40 nmol/mL | 443 µM | 3.1% | 100%
4 | C[N+](C)(C)C[C@H](CC(=O)O)OC(=O)CCCCCCCCCCCCCCCO[N+](=O)[O-].[Cl-] | 100% | 100% | 56% | 62 nmol/mL | 53 µM | 16.3% | 100%
